Measured values from ChEMBL document CHEMBL1201862, “PubChem BioAssay data set” (2004).
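Five concentrations, 48 hours, 96-well plates. GI50 marks 50% less growth.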 Calls of active or inactive are those of the source. Rule as the data show it: active = GI50 up to about 1.1 µM and inactive = higher.

How the values were obtained:
Assay in all cases: NCI-60 cell line screen, 48 h
[1] = system: 786-0
[2] = system: A549
[3] = system: CCRF-CEM
[4] = system: EKVX
[5] = system: HCC 2998
[6] = system: HOP-62
[7] = system: LOX IMVI
[8] = system: M14
[9] = system: Malme-3M
[10] = system: NCI-H226
[11] = system: NCI-H23
[12] = system: OVCAR-3
[13] = system: RXF 393
[14] = system: SK-MEL-5
[15] = system: SNB-75
[16] = system: UACC-257
[17] = system: MOLT-4
[18] = system: SF-539

COc1cc(C(Cc2ccccc2)NC(C)=O)oc(=O)c1 (stereo not drawn)
GI50 [1]: > 100 µM (inactive)
GI50 [2]: > 100 µM (inactive)
GI50 [3]: > 100 µM (inactive)
GI50 [4]: > 100 µM (inactive)
GI50 [5]: > 100 µM (inactive)
GI50 [6]: > 100 µM (inactive)
GI50 [7]: > 100 µM (inactive)
GI50 [8]: > 100 µM (inactive)
GI50 [9]: > 100 µM (inactive)
GI50 [10]: > 100 µM (inactive)
GI50 [11]: > 100 µM (inactive)
GI50 [12]: > 100 µM (inactive)
GI50 [13]: > 100 µM (inactive)
GI50 [14]: > 100 µM (inactive)
GI50 [15]: 25 µM (inactive)
GI50 [16]: > 100 µM (inactive)

CC(C)N(C(=O)C12C3C4C5C3C1(C(=O)N(C(C)C)C(C)C)C5(C#N)C42)C(C)C (stereo not drawn)
GI50 [1]: > 100 µM (inactive)
GI50 [2]: 86.3 µM (inactive)
GI50 [3]: 22 µM (inactive)
GI50 [4]: > 100 µM (inactive)
GI50 [5]: > 100 µM (inactive)
GI50 [6]: > 100 µM (inactive)
GI50 [7]: 20.8 µM (inactive)
GI50 [8]: > 100 µM (inactive)
GI50 [17]: > 100 µM (inactive)
GI50 [9]: > 100 µM (inactive)
GI50 [10]: > 100 µM (inactive)
GI50 [11]: > 100 µM (inactive)
GI50 [12]: > 100 µM (inactive)
GI50 [18]: > 100 µM (inactive)
GI50 [14]: > 100 µM (inactive)
GI50 [15]: > 100 µM (inactive)
GI50 [16]: > 100 µM (inactive)

C=C1CCC2C(C)(CO)C(O)CCC2(C)C1CC(O)C1=CCOC1=O (stereo not drawn)
GI50 [1]: 23.1 µM (inactive)
GI50 [2]: 55.2 µM (inactive)
GI50 [3]: 22.9 µM (inactive)
GI50 [4]: 96.2 µM (inactive)
GI50 [5]: 17.7 µM (inactive)
GI50 [6]: > 100 µM (inactive)
GI50 [7]: 33.5 µM (inactive)
GI50 [8]: 47.3 µM (inactive)
GI50 [17]: > 100 µM (inactive)
GI50 [9]: > 100 µM (inactive)
GI50 [10]: 45.2 µM (inactive)
GI50 [11]: > 100 µM (inactive)
GI50 [12]: 26.5 µM (inactive)
GI50 [18]: 24.3 µM (inactive)
GI50 [14]: 77.1 µM (inactive)
GI50 [15]: 46.9 µM (inactive)
GI50 [16]: > 100 µM (inactive)

O=C1COc2cc3c(cc2N1)SCC(=O)N3
GI50 [1]: > 100 µM (inactive)
GI50 [2]: > 100 µM (inactive)
GI50 [3]: > 100 µM (inactive)
GI50 [4]: 6.41 µM (inactive)
GI50 [5]: > 100 µM (inactive)
GI50 [6]: > 100 µM (inactive)
GI50 [8]: > 100 µM (inactive)
GI50 [17]: > 100 µM (inactive)
GI50 [9]: > 100 µM (inactive)
GI50 [10]: > 100 µM (inactive)
GI50 [11]: > 100 µM (inactive)
GI50 [12]: > 100 µM (inactive)
GI50 [18]: > 100 µM (inactive)
GI50 [14]: > 100 µM (inactive)
GI50 [15]: > 100 µM (inactive)
GI50 [16]: > 100 µM (inactive)

COc1ccc(C2C(C(=O)O)=C(COC(C)=O)Oc3cc4c(cc32)OCO4)c(OC)c1 (stereo not drawn)
GI50 [1]: > 100 µM (inactive)
GI50 [2]: > 100 µM (inactive)
GI50 [3]: > 100 µM (inactive)
GI50 [4]: > 100 µM (inactive)
GI50 [6]: > 100 µM (inactive)
GI50 [7]: > 100 µM (inactive)
GI50 [8]: > 100 µM (inactive)
GI50 [17]: > 100 µM (inactive)
GI50 [9]: > 100 µM (inactive)
GI50 [11]: > 100 µM (inactive)
GI50 [12]: > 100 µM (inactive)
GI50 [13]: > 100 µM (inactive)
GI50 [18]: > 100 µM (inactive)
GI50 [14]: > 100 µM (inactive)
GI50 [15]: > 100 µM (inactive)
GI50 [16]: > 100 µM (inactive)

CCOc1cc2ccc3c4cc(OC)c(OC)cc4cnc3c2cc1OCC
GI50 [1]: > 100 µM (inactive)
GI50 [2]: > 100 µM (inactive)
GI50 [3]: > 100 µM (inactive)
GI50 [4]: > 100 µM (inactive)
GI50 [5]: > 100 µM (inactive)
GI50 [6]: > 100 µM (inactive)
GI50 [8]: > 100 µM (inactive)
GI50 [17]: > 100 µM (inactive)
GI50 [9]: > 100 µM (inactive)
GI50 [11]: > 100 µM (inactive)
GI50 [12]: > 100 µM (inactive)
GI50 [18]: > 100 µM (inactive)
GI50 [14]: > 100 µM (inactive)
GI50 [15]: > 100 µM (inactive)
GI50 [16]: > 100 µM (inactive)

COc1cccc2c1c1ccc3c(c1n2C)C(=O)C=CC3=O
GI50 [1]: 17.3 µM (inactive)
GI50 [2]: > 100 µM (inactive)
GI50 [3]: 0.615 µM (active)
GI50 [5]: 48.4 µM (inactive)
GI50 [6]: > 100 µM (inactive)
GI50 [7]: 16.9 µM (inactive)
GI50 [8]: 14.6 µM (inactive)
GI50 [17]: 2.64 µM (inactive)
GI50 [9]: 13.9 µM (inactive)
GI50 [10]: 64.3 µM (inactive)
GI50 [11]: 16.1 µM (inactive)
GI50 [12]: 16.3 µM (inactive)
GI50 [18]: 16.6 µM (inactive)
GI50 [14]: 37.8 µM (inactive)
GI50 [15]: 0.695 µM (active)
GI50 [16]: 14.9 µM (inactive)
